# Laboratory results as given in patent publication US20070117220A1, “METHOD AND APPARATUS FOR MEASURING FLUORESCENCE POLARIZATION IN LAB-ON-A-CHIP” (priority 2005, published 2007).
# What was measured:
# [1] = molecular target: T1, streptavidin (Streptomyces avidinii, UniProt P22629); experiment: Fluorescence polarization of biotin/streptavidin complex in lab-on-a-chip microchannel, apparatus of FIG. 2 with optical chopper (Embodiment 3); assay type: binding
# Procedure: Fluorescence polarization for the complex of biotin and streptavidin was measured using the apparatus of FIG. 2 including the optical chopper of the invention. In this Embodiment, a lab-on-a-chip made of glass and composed of a microchannel having a depth of 12 μm and a width of 79 μm was used to measure fluorescence polarization for a complex of biomolecule-fluorescently labeled biomaterial.
# For the measurement, the samples were respectively filled in the reservoir of the lab-on-a-chip as following three cases: (A) wherein 4 μM of tetramethylrhodamine TMR was filled in the reservoir; (B) wherein 4 μM of TMR-biotin was put into the reservoir; and (C) wherein 4 μM of TMR-biotin and 1 μM of streptavidin were filled in the reservoirs.
# Fluorescence polarizations FP for the above samples were measured in the microchannel of the lab-on-a-chip using the apparatus of FIG. 2 including the optical chopper.
# As a result, in case of (A), fluorescence polarization was measured 0.047; in case of (B), it was 0.062; and in case of (C), it was 0.240, which were increased the complex of TMR-biotin and streptavidin was formed as shown in FIG. 7A.
# [2] = molecular target: T1, streptavidin; experiment: Fluorescence polarization of biotin/streptavidin complex in lab-on-a-chip microchannel, apparatus of FIG. 2 without optical chopper (Embodiment 2); assay type: binding
# Procedure: Fluorescence polarization FP for the complex of biotin and streptavidin in a lab-on-a-chip was measured using the apparatus of FIG. 2, wherein the optical chopper was not inserted. In this Embodiment, a lab-on-a-chip made of glass and composed of a microchannel having a depth of 12 μm and a width of 79 um was used instead of the 100 μL cuvette. After filling 100 μM of tetramethylrhodamine TMR solution in the microchannel of the lab-on-a-chip using a vacuum pump, a G-factor value was obtained in the same manner described above in Embodiment 1. […] Subsequently, the above samples filled in the reservoirs 1 and 2 were injected into the microchannel using the vacuum pump 6 of the lab-on-a-chip to measure fluorescence polarizations FP for the samples at a detection point 5 of the lab-on-a-chip.
# As a result, in case of (A), fluorescence polarization was measured 0.085; in case of (B), it was 0.097; in case of (C), it was 0.036; in case of (D), it was 0.040; and in case of (E), it was 0.064, which were deviated from the expectations of increases in fluorescence polarization FP as not increased as the complex of TMR-biotin and streptavidin was formed as shown in FIG. 6A.
# Fluorescence polarizations were recalculated from the measured values by subtracting the offset values, the offset being measured in the microchannel when only the buffer solution was filled. […]
# [3] = system: TMR-α-casein; experiment: Protease assay by fluorescence polarization of TMR-α-casein substrate, commercial fluorescence spectrometer; assay type: biochemical; settings: time course, varying enzyme concentrations (unit/mL); FIGS. 9A-9D
# Procedure: Changes of fluorescence polarization FP were measured using the method and apparatus for measuring fluorescence polarization of the present invention, employing TMR-α-casein as a substrate, composed of TMR as a fluorescent probe and α-casein, a universal protein substrate reacted with various proteases.
# First, TMR-α-casein, a fluorescently labeled substrate for proteases, was prepared by applying one of the well-known methods [Analytical Biochemistry (,1996) 243, 1-7] as follows.
# 10 mg/mL of α-casein (sigma) and 5 mg/mL of 5-carboxytetramethylrhodamine succinimidyl ester were mixed in 0.1 M sodium bicarbonate buffer solution (pH 9.0) for reaction at room temperature for two and a half hours. The resulting TMR-α-casein was purified by passing the reaction mixture over a HiTrap desalting column (Sephadex G-25 Amersham Bioscience), and used after quantitation of the amounts of protein and fluorescence.
# Proteinase K, trypsin, papain and elastase were used as proteases to react at increasing concentrations. First, as a comparative example, the process that the TMR-α-casein substrate was degraded by the proteases was analyzed using a commercial fluorescence spectrometer (Perkin Elmer). […]
# [4] = system: TMR-α-casein; experiment: On-chip protease assay by fluorescence polarization of TMR-α-casein substrate, lab-on-a-chip with optical chopper; assay type: biochemical; settings: 1 μM TMR-α-casein final in channel; reaction time 5.1 seconds; FIGS. 10A-10D
# Procedure: Next, the protease assays were carried out using an apparatus for measuring fluorescence polarization including the optical chopper of FIG. 2 on a lab-on-a-chip of glass composed of a channel 1 C1, in which substrates or enzymes flowed, and a channel 2 C2, in which the reaction occurred, the channels having a depth of 12 μm and a width of 79 μm as depicted in FIG. 8.
# For on-chip protease assays, the substrates and the enzymes should mix completely prior to the enzyme reactions. […] […] Therefore, the reaction time was confirmed to be 5.1 seconds after mixing of the substrate with the enzymes.
# Subsequently, to carry out the protease assays in the lab-on-a-chip,2 μM of TMR-α-casein (the final concentration in the channel was 1 μM) was placed in a substrate reservoir and the respective proteases were placed in an enzyme reservoir at increasing concentrations in the same manner as the comparative example. Then, the two substances were allowed to flow into a channel 2 C2, a main channel, to cause a reaction. Fluorescence polarization FP was then measured at the detection point, positioned 32 mm away from the junction, from which the substrates and the enzymes flowed in.
# Again, it was noted that fluorescence polarization values plateaued when the concentration of the enzymes reached at the point generating a specific rate or more.
# T1 sequence (P22629 25-183, species assumed): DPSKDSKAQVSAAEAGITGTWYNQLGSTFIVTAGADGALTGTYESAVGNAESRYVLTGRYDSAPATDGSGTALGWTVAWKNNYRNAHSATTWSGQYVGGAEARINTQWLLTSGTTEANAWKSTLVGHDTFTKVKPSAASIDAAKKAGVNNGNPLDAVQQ
Compound,change of fluorescence polarization values of TMR-α-casein as the reaction proceeded [3],change of fluorescence polarization values of TMR-α-casein with enzyme concentration [4],also measured
O=C(O)CCCC[C@@H]1SC[C@@H]2NC(=O)N[C@@H]21 [D-biotin],–,–,"change of fluorescence polarization by competitive inhibition of TMR-biotin/streptavidin binding ([1]; increasing concentrations of D-biotin supplied to the complex (4 μM TMR-biotin, 1 μM streptavidin) in the microchannel, FIG. 7B): decreased with the increasing concentrations"
"CN(C)c1ccc2c(-c3ccccc3C(=O)[O-])c3ccc(N(C)C)cc3[o+]c2c1 [TMR, tetramethylrhodamine]",–,–,"fluorescence polarization recalculated by subtracting the offset values ([2]; 1.25 μM probe only in reservoir 1, buffer offset subtracted): 0.020; fluorescence polarization (as measured, offset not subtracted) ([2]; 1.25 μM probe only in reservoir 1, no chopper): 0.085; fluorescence polarization ([1]; 4 μM probe only, microchannel, optical chopper): 0.047"
elastase,decreased,decreased with increasing concentrations,–
trypsin,decreased,decreased with increasing concentrations,–
